The record followed here is ChEMBL document CHEMBL1201862, “PubChem BioAssay data set” (2004).

Calls of active or inactive are those of the source.

One experiment can be described thus: cells. It is filed as functional.
Experiment [1] is described as follows: cytotoxicity toward NIH3T3 fibroblasts, dose response, counter-screen, cell-based, ATP luminescence, mouse fibroblasts (AID 2010).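 Further: cells exposed to compound for about 90 hours before reading.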 It is filed as functional. A general note: The purpose of a counterscreen is to sort out artefacts and off-target activity.
Experiment [2] in a line: inhibitors of intracellular T. cruzi replication, confirmation, NIH3T3 host cells, beta-gal luminescence (AID 2044).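 Further: intracellular parasites grown in NIH/3T3 mouse fibroblasts as host cells; luminescent beta-galactosidase reporter signal from transgenic T. cruzi replicating inside host cells; inhibitors lower the luminescence signal.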 The experiment is classed as functional, cell-based.
Experiment [3] in a line: Luminescence Cell-Based Dose Response HTS to Identify Inhibitors of 5'UTR Stem-Loop Driven Prion Protein mRNA Translation in H4 Neuroglioblastoma Cells. [Related pubchem assays: 1827 (Project Summary), 1813 (Primary HTS)]. It is filed as functional.
Experiment [4] is described as follows: inhibitors of SNCA 5'UTR-driven reporter translation, confirmation, H4 neuroglioma cells, luminescence (AID 1988). It is filed as functional, cell-based.
Experiment [5] can be described thus: THP-1 cell cytotoxicity, dose response, cytotoxicity control for non-replicating M. tuberculosis project (AID 489025). It is filed as functional.
In experiment [6] the target is T1, Short transient receptor potential channel 4 (Mus musculus, UniProt Q9QUQ5).
T1 sequence (Q9QUQ5 whole entry): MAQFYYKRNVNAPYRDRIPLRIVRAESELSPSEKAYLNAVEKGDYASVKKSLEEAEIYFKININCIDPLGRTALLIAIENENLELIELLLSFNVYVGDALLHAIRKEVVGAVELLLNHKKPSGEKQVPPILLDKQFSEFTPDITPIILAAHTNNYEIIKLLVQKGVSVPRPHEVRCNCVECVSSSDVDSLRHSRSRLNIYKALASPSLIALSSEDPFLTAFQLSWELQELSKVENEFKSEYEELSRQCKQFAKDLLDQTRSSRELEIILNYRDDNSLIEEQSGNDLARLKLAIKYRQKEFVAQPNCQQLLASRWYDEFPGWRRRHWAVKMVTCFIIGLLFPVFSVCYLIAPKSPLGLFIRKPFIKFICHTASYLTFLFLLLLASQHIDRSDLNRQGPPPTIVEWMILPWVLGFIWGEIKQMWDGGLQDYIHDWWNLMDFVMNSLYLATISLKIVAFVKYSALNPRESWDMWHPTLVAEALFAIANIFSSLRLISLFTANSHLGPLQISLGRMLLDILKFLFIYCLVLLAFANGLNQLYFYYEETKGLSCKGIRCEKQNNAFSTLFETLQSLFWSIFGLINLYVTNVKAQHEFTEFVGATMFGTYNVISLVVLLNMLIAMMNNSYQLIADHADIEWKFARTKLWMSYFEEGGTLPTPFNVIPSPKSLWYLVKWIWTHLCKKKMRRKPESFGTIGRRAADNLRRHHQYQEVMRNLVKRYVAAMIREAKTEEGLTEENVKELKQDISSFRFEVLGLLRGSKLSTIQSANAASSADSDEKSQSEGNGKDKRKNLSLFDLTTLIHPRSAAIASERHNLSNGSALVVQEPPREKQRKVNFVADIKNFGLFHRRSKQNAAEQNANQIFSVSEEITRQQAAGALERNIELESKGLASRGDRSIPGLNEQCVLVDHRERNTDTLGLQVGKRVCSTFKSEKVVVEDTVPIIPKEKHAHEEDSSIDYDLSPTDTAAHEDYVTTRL
Nature of the experiment: mouse TRPC4 channel activators, dose response, cell-based, HEK293 TRPC4/mu-opioid, Fluo-4 calcium (AID 434937). The experiment is classed as functional.

Experiment [7] can be described thus: inhibitors of firefly luciferase expression or activity, dose response, H4 neuroglioma cells, luminescence (AID 1990). The experiment is classed as functional, cell-based.
For experiment [8], the target named is Voltage-dependent T-type calcium channel subunit alpha-1H (Homo sapiens, UniProt O95180). It is filed as functional.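 Further: channel activity triggered by adding a high calcium stimulation buffer.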
Chain of Voltage-dependent T-type calcium channel subunit alpha-1H (O95180 whole entry): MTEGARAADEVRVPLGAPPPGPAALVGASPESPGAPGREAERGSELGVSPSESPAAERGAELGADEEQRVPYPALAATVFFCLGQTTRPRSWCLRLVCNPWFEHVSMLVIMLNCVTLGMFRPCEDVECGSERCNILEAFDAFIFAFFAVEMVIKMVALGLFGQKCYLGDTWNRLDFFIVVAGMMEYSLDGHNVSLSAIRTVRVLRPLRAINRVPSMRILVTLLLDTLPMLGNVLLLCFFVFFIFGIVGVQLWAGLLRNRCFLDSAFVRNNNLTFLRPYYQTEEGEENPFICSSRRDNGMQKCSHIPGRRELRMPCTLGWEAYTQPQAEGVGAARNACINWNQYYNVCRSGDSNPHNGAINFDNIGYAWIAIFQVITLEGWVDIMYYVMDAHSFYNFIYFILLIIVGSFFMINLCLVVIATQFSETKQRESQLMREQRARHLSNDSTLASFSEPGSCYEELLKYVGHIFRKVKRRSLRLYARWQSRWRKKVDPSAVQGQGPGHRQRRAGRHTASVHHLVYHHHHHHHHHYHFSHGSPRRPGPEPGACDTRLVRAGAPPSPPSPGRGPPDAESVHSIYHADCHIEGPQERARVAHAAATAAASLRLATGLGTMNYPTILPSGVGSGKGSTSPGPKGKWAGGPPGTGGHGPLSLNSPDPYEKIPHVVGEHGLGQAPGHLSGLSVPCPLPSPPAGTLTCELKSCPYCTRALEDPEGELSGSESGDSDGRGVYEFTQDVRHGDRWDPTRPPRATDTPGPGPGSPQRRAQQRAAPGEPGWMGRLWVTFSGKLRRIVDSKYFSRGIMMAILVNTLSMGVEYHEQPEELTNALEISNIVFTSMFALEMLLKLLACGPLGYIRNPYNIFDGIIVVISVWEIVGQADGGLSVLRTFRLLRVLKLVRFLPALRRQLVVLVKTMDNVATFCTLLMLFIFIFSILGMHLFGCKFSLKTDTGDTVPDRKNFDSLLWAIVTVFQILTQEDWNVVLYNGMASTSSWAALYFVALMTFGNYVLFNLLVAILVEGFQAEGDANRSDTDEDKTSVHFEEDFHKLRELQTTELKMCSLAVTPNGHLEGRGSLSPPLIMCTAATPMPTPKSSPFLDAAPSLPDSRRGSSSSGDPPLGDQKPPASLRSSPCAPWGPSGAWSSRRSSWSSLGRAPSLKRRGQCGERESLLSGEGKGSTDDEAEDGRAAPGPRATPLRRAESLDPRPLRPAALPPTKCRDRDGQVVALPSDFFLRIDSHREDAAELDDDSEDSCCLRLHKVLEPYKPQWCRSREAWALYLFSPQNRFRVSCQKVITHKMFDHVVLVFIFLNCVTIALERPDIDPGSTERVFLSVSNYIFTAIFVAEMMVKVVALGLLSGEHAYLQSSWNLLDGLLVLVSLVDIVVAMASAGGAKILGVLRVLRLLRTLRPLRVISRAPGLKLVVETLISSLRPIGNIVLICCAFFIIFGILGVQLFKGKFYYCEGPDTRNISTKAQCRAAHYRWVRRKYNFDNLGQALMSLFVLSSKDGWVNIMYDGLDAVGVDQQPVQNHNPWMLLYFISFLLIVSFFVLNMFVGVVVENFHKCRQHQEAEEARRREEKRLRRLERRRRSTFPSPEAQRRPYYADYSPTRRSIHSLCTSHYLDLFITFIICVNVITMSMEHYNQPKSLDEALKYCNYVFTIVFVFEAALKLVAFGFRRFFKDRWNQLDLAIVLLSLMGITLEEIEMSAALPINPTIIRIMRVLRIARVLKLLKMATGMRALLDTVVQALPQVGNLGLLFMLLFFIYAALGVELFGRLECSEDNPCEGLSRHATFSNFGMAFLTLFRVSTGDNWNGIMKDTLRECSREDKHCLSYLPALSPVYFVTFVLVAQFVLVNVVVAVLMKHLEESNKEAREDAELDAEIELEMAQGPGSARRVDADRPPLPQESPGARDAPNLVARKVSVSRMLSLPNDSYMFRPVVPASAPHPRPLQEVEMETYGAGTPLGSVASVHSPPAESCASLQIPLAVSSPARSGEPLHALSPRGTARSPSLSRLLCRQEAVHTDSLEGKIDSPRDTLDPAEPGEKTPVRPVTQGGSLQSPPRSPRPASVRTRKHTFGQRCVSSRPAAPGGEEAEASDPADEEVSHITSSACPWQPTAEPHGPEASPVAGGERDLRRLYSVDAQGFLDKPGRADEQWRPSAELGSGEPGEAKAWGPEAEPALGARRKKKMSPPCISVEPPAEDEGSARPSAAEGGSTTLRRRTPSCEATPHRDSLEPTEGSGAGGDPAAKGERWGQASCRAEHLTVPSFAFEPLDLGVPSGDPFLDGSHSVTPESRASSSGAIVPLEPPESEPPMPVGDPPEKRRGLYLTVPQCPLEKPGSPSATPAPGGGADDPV
A short description of experiment [9]: Luminescence Cell-Based Dose Retest to Confirm Inhibitors of Cancer Stem Cells. [Related pubchem assays (depositor defined):AID2717, AID2721]. The experiment is classed as functional. Conditions: Homo sapiens.
The target in the next experiment is Genome polyprotein (dengue virus type 2, UniProt P29990). Nature of the experiment: Dengue-2 NS5 methyltransferase inhibitors, primary screen, biochemical, confirmation dose response (AID 588689). It is filed as functional.
The next experiment addresses Cytochrome P450 3A4 (Homo sapiens, UniProt P08684).
Experiment [10] relates to HEK293. Nature of the experiment: cells. It is filed as functional, cell-based. The conditions noted are these: Homo sapiens.
Experiment [11] deals with HEK293. The experiment is described as follows: NOD2 signaling inhibitors in MDP-stimulated cells, cell-based, uHTS, luminescence (AID 2001). The conditions noted are these: Homo sapiens. It is filed as functional.
Experiment [12] concerns HEK293. The experiment is described as follows: NOD1 signaling inhibitors, primary screen, cell-based, luminescence, uHTS (AID 1578). The experiment is classed as functional. The conditions noted are these: Homo sapiens.
Experiment [13] in a line: growth suppression of beta-catenin-knockout colon cells, dose response, cell-based, HCT116, human colon tumor (AID 1045).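 Further: HCT116 colon tumor cells with beta catenin knocked out; cells exposed to compound for 60 hours.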 It is filed as functional.
The target of experiment [14] is Peroxisome proliferator-activated receptor gamma/Nuclear receptor coactivator 1 (Homo sapiens, UniProt P37231). It is filed as functional.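 Further: agonist potency as compounds enhance coactivator SRC-1 recruitment to PPARgamma.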
Experiment [15] has as its target Peroxisome proliferator-activated receptor gamma/Nuclear receptor coactivator 3 (Homo sapiens, UniProt P37231). It is filed as functional.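 Further: agonist potency for raising coactivator recruitment to the receptor.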
In experiment [16] the target is Peroxisome proliferator-activated receptor gamma/Nuclear receptor coactivator 2 (Homo sapiens, UniProt P37231). It is filed as functional.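 Further: agonist potency for raising coactivator recruitment to the receptor.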
Chain of Peroxisome proliferator-activated receptor gamma/Nuclear receptor coactivator 2 (P37231 whole entry): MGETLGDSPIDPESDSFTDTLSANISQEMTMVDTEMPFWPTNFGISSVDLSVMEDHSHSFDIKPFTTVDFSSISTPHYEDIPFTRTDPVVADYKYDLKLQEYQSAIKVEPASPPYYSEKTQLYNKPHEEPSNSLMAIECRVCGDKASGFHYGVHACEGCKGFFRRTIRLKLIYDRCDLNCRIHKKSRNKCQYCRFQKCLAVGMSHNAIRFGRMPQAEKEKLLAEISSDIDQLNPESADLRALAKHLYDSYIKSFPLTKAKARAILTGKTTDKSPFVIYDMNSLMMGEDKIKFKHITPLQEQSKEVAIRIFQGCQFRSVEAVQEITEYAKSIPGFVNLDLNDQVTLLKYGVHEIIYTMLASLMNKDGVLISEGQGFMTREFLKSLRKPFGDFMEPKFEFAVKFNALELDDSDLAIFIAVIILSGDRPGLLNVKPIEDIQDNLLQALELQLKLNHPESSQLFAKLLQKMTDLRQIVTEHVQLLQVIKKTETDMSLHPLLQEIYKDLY
Chain of Peroxisome proliferator-activated receptor gamma/Nuclear receptor coactivator 2 (Q15596 whole entry, further chain): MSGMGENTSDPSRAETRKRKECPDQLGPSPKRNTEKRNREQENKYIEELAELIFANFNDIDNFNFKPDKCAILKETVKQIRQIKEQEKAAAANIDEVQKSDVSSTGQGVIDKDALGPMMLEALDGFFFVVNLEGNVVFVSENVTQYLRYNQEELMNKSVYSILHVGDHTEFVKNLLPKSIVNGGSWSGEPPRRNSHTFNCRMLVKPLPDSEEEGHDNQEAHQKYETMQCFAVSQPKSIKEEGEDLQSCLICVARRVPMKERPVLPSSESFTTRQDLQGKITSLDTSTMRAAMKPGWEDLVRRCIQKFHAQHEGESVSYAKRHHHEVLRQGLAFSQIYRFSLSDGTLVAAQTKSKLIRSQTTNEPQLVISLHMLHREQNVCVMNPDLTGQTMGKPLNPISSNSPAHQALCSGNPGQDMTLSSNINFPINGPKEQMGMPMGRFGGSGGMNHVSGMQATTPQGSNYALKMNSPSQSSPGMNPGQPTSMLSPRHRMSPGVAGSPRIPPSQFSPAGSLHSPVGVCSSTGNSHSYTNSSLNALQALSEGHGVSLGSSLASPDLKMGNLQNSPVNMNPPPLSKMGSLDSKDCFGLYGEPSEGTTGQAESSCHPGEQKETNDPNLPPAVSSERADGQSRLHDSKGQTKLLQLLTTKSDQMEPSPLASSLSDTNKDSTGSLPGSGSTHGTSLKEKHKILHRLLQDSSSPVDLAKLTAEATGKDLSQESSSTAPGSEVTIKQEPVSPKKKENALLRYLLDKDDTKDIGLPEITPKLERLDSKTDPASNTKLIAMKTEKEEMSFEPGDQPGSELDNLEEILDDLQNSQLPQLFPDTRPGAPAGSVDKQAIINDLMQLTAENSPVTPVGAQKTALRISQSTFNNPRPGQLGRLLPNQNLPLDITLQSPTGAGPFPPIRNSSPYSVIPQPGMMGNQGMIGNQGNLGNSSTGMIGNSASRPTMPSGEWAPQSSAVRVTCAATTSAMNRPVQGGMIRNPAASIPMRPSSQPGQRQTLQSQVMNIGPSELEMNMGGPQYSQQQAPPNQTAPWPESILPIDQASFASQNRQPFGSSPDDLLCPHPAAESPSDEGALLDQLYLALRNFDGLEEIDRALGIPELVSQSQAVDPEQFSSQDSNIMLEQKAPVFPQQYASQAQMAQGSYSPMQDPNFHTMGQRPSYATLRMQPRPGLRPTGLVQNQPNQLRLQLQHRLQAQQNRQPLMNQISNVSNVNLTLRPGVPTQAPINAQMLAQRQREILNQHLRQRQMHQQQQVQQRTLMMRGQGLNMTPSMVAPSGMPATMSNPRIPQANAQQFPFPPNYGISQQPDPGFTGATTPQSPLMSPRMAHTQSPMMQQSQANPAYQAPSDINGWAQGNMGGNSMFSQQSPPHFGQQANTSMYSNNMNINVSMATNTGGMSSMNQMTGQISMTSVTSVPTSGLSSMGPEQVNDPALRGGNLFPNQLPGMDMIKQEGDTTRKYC
A short description of experiment [17]: growth suppression of PTEN-null colon cells, dose response, cell-based, HCT116 PTEN knockout (AID 1047).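 Further: HCT116 colon tumor cells with PTEN knocked out; cells exposed to compound for 60 hours before readout; potency for loss of cell viability measured by luminescence.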 The experiment is classed as functional.
The test system of the next experiment is H9c2. Nature of the experiment: cells. It is filed as functional, cell-based. Conditions: Rattus norvegicus, H9c2, Myocardium.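 Further: confirmatory concentration-response retest of ultra-high-throughput screening hits for modulation of myocardial damage; cell death induced by hydrogen peroxide oxidative stress; compound pretreatment for 60 min then peroxide exposure for 2 h; potency is for protecting the cells against peroxide damage rather than for killing them.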
The target in experiment [18] is T2, Corticotropin-releasing factor receptor 2/Corticotropin-releasing factor-binding protein (Homo sapiens, UniProt P24387+Q13324).
T2 sequence (Q13324 whole entry): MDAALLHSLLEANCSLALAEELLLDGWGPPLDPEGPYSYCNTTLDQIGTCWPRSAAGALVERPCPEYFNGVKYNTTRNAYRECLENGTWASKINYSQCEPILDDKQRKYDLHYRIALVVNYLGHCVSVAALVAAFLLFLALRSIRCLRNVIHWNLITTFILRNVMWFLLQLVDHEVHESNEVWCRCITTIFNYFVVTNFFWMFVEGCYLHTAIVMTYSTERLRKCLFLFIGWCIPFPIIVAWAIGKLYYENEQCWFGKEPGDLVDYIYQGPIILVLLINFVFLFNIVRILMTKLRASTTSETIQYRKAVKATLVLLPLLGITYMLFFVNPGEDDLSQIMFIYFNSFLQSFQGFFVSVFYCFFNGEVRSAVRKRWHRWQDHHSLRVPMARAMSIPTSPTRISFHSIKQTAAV
T2 sequence (P24387 whole entry): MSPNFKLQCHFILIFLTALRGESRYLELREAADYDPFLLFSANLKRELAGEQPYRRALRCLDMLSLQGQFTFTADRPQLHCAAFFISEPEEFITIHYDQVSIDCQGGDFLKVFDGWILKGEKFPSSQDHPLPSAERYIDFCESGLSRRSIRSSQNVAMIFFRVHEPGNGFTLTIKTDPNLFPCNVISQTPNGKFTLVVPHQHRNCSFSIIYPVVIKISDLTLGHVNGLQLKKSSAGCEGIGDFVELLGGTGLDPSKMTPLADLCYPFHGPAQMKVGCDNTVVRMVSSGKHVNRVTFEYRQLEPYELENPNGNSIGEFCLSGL
The experiment is described as follows: activators of CRF receptor 2 with binding protein – uHTS hits, confirmation (AID 602473). It is filed as functional. Conditions: read-out: EC50_Mean.

For experiment [19], the target named is T2, Corticotropin-releasing factor receptor 2/Corticotropin-releasing factor-binding protein. Nature of the experiment: Dose Response confirmation of uHTS hits for small molecule antagonists of the CRF-binding protein and CRF-R2 receptor complex. It is filed as functional. The conditions noted are these: read-out: IC50_Mean.
The target of the next experiment is T3, Cytochrome P450 1A2 (Homo sapiens, UniProt P05177).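 Further: PubChem cytochrome P450 panel assay, CYP1A2 panel member.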
T3 sequence (P05177 whole entry): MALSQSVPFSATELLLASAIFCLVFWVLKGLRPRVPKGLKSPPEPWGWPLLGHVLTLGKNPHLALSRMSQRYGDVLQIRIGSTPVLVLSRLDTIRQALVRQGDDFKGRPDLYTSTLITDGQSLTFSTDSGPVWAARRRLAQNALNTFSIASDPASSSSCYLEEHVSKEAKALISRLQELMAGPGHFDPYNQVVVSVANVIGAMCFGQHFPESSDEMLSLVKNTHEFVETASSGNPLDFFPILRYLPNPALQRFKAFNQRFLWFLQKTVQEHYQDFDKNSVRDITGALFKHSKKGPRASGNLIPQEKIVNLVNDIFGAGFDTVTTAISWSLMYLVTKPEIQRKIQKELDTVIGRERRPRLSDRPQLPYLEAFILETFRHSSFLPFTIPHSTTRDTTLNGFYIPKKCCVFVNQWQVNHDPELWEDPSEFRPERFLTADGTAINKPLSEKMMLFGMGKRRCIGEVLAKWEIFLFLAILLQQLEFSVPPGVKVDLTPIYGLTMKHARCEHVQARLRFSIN

Chain of Cytochrome P450 3A4 (P08684 whole entry): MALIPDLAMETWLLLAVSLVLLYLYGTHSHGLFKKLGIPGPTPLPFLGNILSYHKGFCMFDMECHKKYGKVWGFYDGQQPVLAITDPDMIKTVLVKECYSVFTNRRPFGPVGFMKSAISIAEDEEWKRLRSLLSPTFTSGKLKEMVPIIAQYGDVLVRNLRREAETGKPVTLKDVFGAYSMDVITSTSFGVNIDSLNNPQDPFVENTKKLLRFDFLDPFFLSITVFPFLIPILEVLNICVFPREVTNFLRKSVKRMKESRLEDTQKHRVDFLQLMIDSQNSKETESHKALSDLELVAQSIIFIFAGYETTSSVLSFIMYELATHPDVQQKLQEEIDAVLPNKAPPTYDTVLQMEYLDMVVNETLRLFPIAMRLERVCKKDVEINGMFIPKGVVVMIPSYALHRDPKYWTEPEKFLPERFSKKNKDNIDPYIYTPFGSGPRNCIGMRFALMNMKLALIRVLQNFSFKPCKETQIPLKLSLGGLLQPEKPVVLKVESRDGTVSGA

Usually CC50 stands for the concentration giving 50% cytotoxicity. As for `Cc1cc(OCCCCn2ccnc2)cc(C)c1Cl`, the IC50 in the experiment “cells” is 15.8 µM (active). The EC50 in experiment [1] was > 60 µM (not active); in experiment [2], 0.145 µM (active); in experiment [3] it was > 120 µM (not active); in [4], 16 µM (active); in experiment [6] it was 5.31 µM (active); in experiment [7], > 120 µM (not active). Moreover, the CC50 in experiment [5] is 33.2 µM (active).
For `COc1ccccc1NC(=O)c1nnn(Cc2ccccc2)c1NC(=O)C(F)(F)F`, the EC50 in [8] was 3.86 µM (active).
Broadly, the AC50 is the midpoint of the concentration-response curve, whichever way the signal moves. As to `Cc1snc(S(=O)(=O)/C(C#N)=N/Nc2ccc(C(F)(F)F)cc2)c1C#N`, in [9], the concentration at half-maximal activity (AC50) was 7.49 µM (active). In experiment [8], the EC50 is 6.48 µM (active).
`COc1ccccc1N(O)C1CC(=O)N(c2ccc(Br)cc2)C1=O` (configuration not stated): the IC50 on Genome polyprotein is 34.7 µM (active).
As to `CN1C(=O)C(=Cc2ccccc2Oc2ccc(Cl)c(F)c2)C(=O)N(C)C1=O`, at Cytochrome P450 3A4, the AC50 was 14.1 µM (inconclusive). Further, at Genome polyprotein, the IC50 was 51.9 µM (active).
For `COc1cc(/C=C2/CCc3ccccc3C2=O)cc(OC)c1OC`, the IC50 was > 20 µM (inactive) in the experiment with HEK293 [10] and 9.24 µM (active) with HEK293 [11]. Besides, the EC50 in the experiment on HEK293 [12] was > 20 µM (inactive).
For the compound `CCN1CCCC1CNC(=O)c1cc2c(-c3ccc(Cl)cc3)nn(C)c2s1` (configuration not stated), the EC50 in experiment [13] was 5.02 µM (active); in experiment [14], > 79.4 µM (not active); in experiment [15], > 79.4 µM (not active); in [16], > 79.4 µM (not active); in [17] it was 5.98 µM (active).
For `CCN(CC)CCn1c(NC(=O)c2ccc(Cl)cc2)nc2ccccc21`, the EC50 in experiment [14], in experiment [15] and in experiment [16] was > 79.4 µM (not active) throughout. For the same compound, the IC50 in the experiment on H9c2 is > 79 µM (inactive).
With `O=C(COc1ccc(Cl)cc1)NCCSCc1cccc(Cl)c1`, in experiment [8], the EC50 is 3.76 µM (active).
For the compound `Cc1ccc(NS(=O)(=O)c2cccs2)cc1S(=O)(=O)N1CCCCCC1`, the EC50 in experiment [14] was > 79.4 µM (not active); in experiment [18], > 53 µM (inactive); in [15], > 79.4 µM (not active); in [16], > 79.4 µM (not active). The IC50 in experiment [19] is > 47.1 µM (inactive).
Regarding `O=C(Nc1ccn(Cc2ccccc2F)n1)c1ccc(COc2cc(Cl)ccc2Cl)o1`, the AC50 at Cytochrome P450 1A2 was 3.55 µM (inconclusive). Moreover, the EC50 in experiment [8] is 7.11 µM (active).
Regarding `O=C(CSc1nc2ccccc2[nH]1)Nc1ccc2c(c1)OCCO2`, the EC50 in experiment [8] was 13.3 µM (active).
Take `C/C(CC(c1ccccc1)c1c(O)oc2ccccc2c1=O)=N\Nc1ccc([N+](=O)[O-])cc1[N+](=O)[O-]` (configuration not stated): the IC50 on Genome polyprotein is 94.4 µM (active).
Regarding `Cc1ccc(-c2ccc(/C=N/N3C(=O)C4C5C=CC(C6CC56)C4C3=O)o2)c([N+](=O)[O-])c1` (configuration not stated), in experiment [8], the EC50 was 7.22 µM (active).
